This is an account of results in patent publication US5866380A, “Methods for bioconversion of ferulic acid to vanillic acid or vanillin and for the bioconversion of vanillic acid to vanillin using filamentous fungi” (Institut National De La Recherche Agronomique-I.N.R.A., priority 1994, dated 1999).

Data set [1] can be described thus: binding of vanillin by nonionic resin XAD2. It is filed as physicochemical.
In another data set the test system is fungi. The data set can be described thus: toxicity of ferulic acid, vanillic acid and vanillin to the fungi. It is filed as cell-based, filamentous fungi. Conditions: for concentration toxic to the fungi: concentration in the culture.
Data set [2] in a line: binding of produced vanillin to XAD2 resin in Phanerochaete chrysosporium culture (experiment 2). It counts as physicochemical. The conditions noted are these: experiment 2, XAD2 10% (weight/volume), 6 days of growth. As to the method:
The strain used is the Phanerochaete chrysosporium strain MIC 247, deposited on 31st Aug. 1994 with the Collection Nationale de Culture de Microorganismes under the number I-1471. This strain was cultured as described in Example 1 above.
Vanillic acid was added sequentially, namely: 0.3 g/l at the end of 3 days of culture, then 0.3 g/l every day.
For experiment 2, sterile resin XAD2 (Amberlite) is added in the proportion of 10% (weight/volume) after 3 days+6 h of culture of the fungus, that is to say 6 h after adding vanillic acid (at a concentration of 300 mg/l).
Vanillic acid and its metabolites are assayed as described in Example 1 above.

Turning to `COc1cc(C=O)ccc1O` [vanillin], in data set [1], the “vanillin bound by the resin” value is 98%. For the same compound, the “concentration toxic to the fungi” value with fungi is listed as “above 2 g/l”. In the data set with fungi (strain that accumulates vanillin (Nidulariales)), the “toxicity for the metabolism of the fungus (in words)” value was “very quickly becomes toxic for the metabolism of the fungus”. Moreover, the “vanillin produced that has been bound to the resin” value in data set [2] turned out to be 94%.
Turning to `COc1cc(/C=C/C(=O)O)ccc1O` [ferulic acid], the “concentration toxic to the fungi” value in the data set on fungi is recorded as “above 2 g/l”.
`COc1cc(C(=O)O)ccc1O` [vanillic acid]: the “concentration toxic to the fungi” value in the data set on fungi is given as “above 2 g/l”.
